T/C data for 13 compounds are collected here from PubChem BioAssay AID252 (DTP/NCI, 2004).

Several values for one entry are separate records, joined by “and”; a condition that tells them apart may be missing. Equal entries are not always repeated. Toxic doses and inconclusive results are not listed. *1 amine or outer side, *2 acyl side, *3 side chain or, on linkers, in order; H or OH if unused. Where a SMILES comes first, the peptide text is derived from it. Bridges are numbered along the chain shown (N, C = ends). Roman numbers before positions name the chains, in order. [ ]: non-standard residue; d: D form. Actinocin(9to1) = Cc1c2oc3c(C)ccc(C(=O)[*:1])c3nc-2c(C(=O)[*:2])c(N)c1=O; aThr = C[C@H](O)[C@H](N)C(=O)O; NMeV = CN[C@H](C(=O)O)C(C)C; Sar = CNCC(=O)O

For the experiment, the system named is BDF1 mice, intracerebral L1210 leukemia, survival T/C. The experiment in a line: NCI In Vivo Anticancer Drug Screen. Data for tumor model L1210 Leukemia (intracerebral) in B6D2F1 (BDF1) mice. Conditions: higher = longer survival. In short, it runs like this:
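Transplantable tumour-bearing mice, compound-treated vs vehicle controls; read-out survival, reported as T/C ratio.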

Where [1] appears, read: endpoint: mean survival time, dose: 25.0 mg/kg/injection, schedule: Q01DX Z (ip), vehicle: carboxymethylcellulose (CMC).
Setting [2] is: endpoint: mean survival time, dose: 100.0 mg/kg/injection, schedule: Q01DX Z (ip), vehicle: carboxymethylcellulose (CMC).

With `O=C(NC1=C(N2CC2)C(=O)C(NC(=O)OCCO)=C(N2CC2)C1=O)OCCO`, the T/C reads like this: (endpoint: median survival time, dose: 0.18 mg/kg/injection, schedule: Q01DX009 (ip), vehicle: saline) 100 % of control; (endpoint: median survival time, dose: 0.39 mg/kg/injection, schedule: Q01DX009 (ip), vehicle: saline) 97 % of control; (endpoint: median survival time, dose: 0.75 mg/kg/injection, schedule: Q01DX009 (ip), vehicle: saline) 96 % of control and 97 % of control; (endpoint: median survival time, dose: 1.5 mg/kg/injection, schedule: Q01DX009 (ip), vehicle: saline) 91 % of control and 100 % of control; (endpoint: median survival time, dose: 3.0 mg/kg/injection, schedule: Q01DX009 (ip), vehicle: saline) 108 % of control and 101 % of control; (endpoint: median survival time, dose: 6.0 mg/kg/injection, schedule: Q01DX009 (ip), vehicle: saline) 122 % of control and 98 % of control.

As to `N=[N+]=CC(=O)OCC(N)C(=O)O` (centres undefined), the T/C runs as follows: (endpoint: mean survival time, dose: 43.0 mg/kg/injection, schedule: Q01DX001 (ip), vehicle: saline) 104 % of control; (endpoint: mean survival time, dose: 66.0 mg/kg/injection, schedule: Q01DX001 (ip), vehicle: saline) 101 % of control.

Turning to `CN1CCN(CCCN2c3ccccc3Sc3ccc(Cl)cc32)CC1`, the T/C is 108 % of control (endpoint: mean survival time, dose: 16.6 mg/kg/injection, schedule: Q01DX009 (ip), vehicle: saline) and 103 % of control (endpoint: mean survival time, dose: 25.0 mg/kg/injection, schedule: Q01DX009 (ip), vehicle: saline).

Turning to `O=NN(CCCl)C(=O)N[C@H]1CCCC[C@H]1O`, the T/C (endpoint: mean survival time, dose: 18.0 mg/kg/injection, schedule: Q01DX001 (ip), vehicle: saline with Tween-80) is 220 % of control; the T/C (endpoint: mean survival time, dose: 26.0 mg/kg/injection, schedule: Q01DX001 (ip), vehicle: saline with Tween-80) was 408 % of control; the T/C (endpoint: mean survival time, dose: 40.0 mg/kg/injection, schedule: Q01DX001 (ip), vehicle: saline with Tween-80) is 352 % of control; the T/C (endpoint: mean survival time, dose: 60.0 mg/kg/injection, schedule: Q01DX001 (ip), vehicle: saline with Tween-80) is 193 % of control.

Regarding `CC(=O)OCC1OC(n2cnc3c(=S)nc[nH]c32)C(OC(C)=O)C1OC(C)=O` (centres undefined), the T/C is, setting by setting: under setting [1], 112 % of control and 117 % of control; under setting [2], 157 % of control; (endpoint: mean survival time, dose: 200.0 mg/kg/injection, schedule: Q01DX Z (ip), vehicle: carboxymethylcellulose (CMC)) 121 % of control and 87 % of control.

Turning to `CN=NNc1nc[nH]c1C(N)=O`, the T/C is, setting by setting: (endpoint: mean survival time, dose: 12.5 mg/kg/injection, schedule: Q01DX Z (ip), vehicle: carboxymethylcellulose (CMC)) 102 % of control; under setting [1], 114 % of control; (endpoint: mean survival time, dose: 50.0 mg/kg/injection, schedule: Q01DX Z (ip), vehicle: carboxymethylcellulose (CMC)) 111 % of control; under setting [2], 87 % of control.

In the case of `CC12CC3(C)CC(C)(C1)CC(NC(=O)N(CCF)N=O)(C2)C3`, the T/C (endpoint: mean survival time, dose: 82.0 mg/kg/injection, schedule: Q01DX001 (ip), vehicle: other) was 113 % of control.

Regarding `O=NN(CCBr)C(=O)NC1CCCCC1`, the T/C reads like this: (endpoint: mean survival time, dose: 137.0 mg/kg/injection, schedule: Q01DX001 (ip), vehicle: carboxymethylcellulose (CMC)) 108 % of control; (endpoint: mean survival time, dose: 345.0 mg/kg/injection, schedule: Q01DX001 (ip), vehicle: carboxymethylcellulose (CMC)) 224 % of control.

As for `CCn1cnc2c(SC(C)C)ncnc21`, the T/C is 100 % of control (endpoint: mean survival time, dose: 16.0 mg/kg/injection, schedule: Q01DX Z (ip), vehicle: carboxymethylcellulose (CMC)); 109 % of control (endpoint: mean survival time, dose: 31.0 mg/kg/injection, schedule: Q01DX Z (ip), vehicle: carboxymethylcellulose (CMC)); 110 % of control (endpoint: mean survival time, dose: 62.0 mg/kg/injection, schedule: Q01DX Z (ip), vehicle: carboxymethylcellulose (CMC)).

For the compound `CC(CN1CC(=O)NC(=O)C1)N1CC(=O)NC(=O)C1` (centres undefined), the T/C runs as follows: (endpoint: mean survival time, dose: 1.56 mg/kg/injection, schedule: Q03HX024 (ip), vehicle: steriod suspending solution) 108 % of control and 118 % of control; (endpoint: mean survival time, dose: 3.12 mg/kg/injection, schedule: Q03HX024 (ip), vehicle: steriod suspending solution) 162 % of control; (endpoint: mean survival time, dose: 12.5 mg/kg/injection, schedule: Q01DX009 (ip), vehicle: steriod suspending solution) 124 % of control; (endpoint: mean survival time, dose: 25.0 mg/kg/injection, schedule: Q03HX024 (ip), vehicle: steriod suspending solution) 180 % of control; (endpoint: mean survival time, dose: 50.0 mg/kg/injection, schedule: Q04DX003 (ip), vehicle: steriod suspending solution) 122 % of control; (endpoint: mean survival time, dose: 100.0 mg/kg/injection, schedule: Q01DX009 (ip), vehicle: steriod suspending solution) 97 % of control. Besides, the T/C is 104 % of control and 122 % of control (endpoint: mean survival time, dose: 108.0 mg/kg/injection, schedule: Q04DX003 (ip), vehicle: other); 108 % of control (endpoint: mean survival time, dose: 108.0 mg/kg/injection, schedule: Q04DX003 (ip), vehicle: steriod suspending solution); 104 % of control and 118 % of control (endpoint: mean survival time, dose: 180.0 mg/kg/injection, schedule: Q04DX003 (ip), vehicle: other); 108 % of control and 123 % of control (endpoint: mean survival time, dose: 180.0 mg/kg/injection, schedule: Q04DX003 (ip), vehicle: steriod suspending solution); 111 % of control (endpoint: mean survival time, dose: 200.0 mg/kg/injection, schedule: Q01DX001 (ip), vehicle: steriod suspending solution); 110 % of control (endpoint: mean survival time, dose: 400.0 mg/kg/injection, schedule: Q01DX001 (ip), vehicle: steriod suspending solution). Also, the T/C is, setting by setting: (endpoint: mean survival time, dose: 500.0 mg/kg/injection, schedule: Q04DX003 (ip), vehicle: other) 107 % of control and 117 % of control; (endpoint: mean survival time, dose: 500.0 mg/kg/injection, schedule: Q04DX003 (ip), vehicle: steriod suspending solution) 111 % of control and 122 % of control; (endpoint: mean survival time, dose: 800.0 mg/kg/injection, schedule: Q04DX003 (ip), vehicle: steriod suspending solution) 115 % of control and 86 % of control (2×); (endpoint: mean survival time, dose: 833.0 mg/kg/injection, schedule: Q04DX003 (ip), vehicle: Klucel (hydroxypropylcellulose) (HPC)) 103 % of control; (endpoint: median survival time, dose: 16.0 mg/kg/injection, schedule: Q01DX009 (ip), vehicle: Klucel (hydroxypropylcellulose) (HPC)) 116 % of control; (endpoint: median survival time, dose: 64.0 mg/kg/injection, schedule: Q01DX009 (ip), vehicle: Klucel (hydroxypropylcellulose) (HPC)) 114 % of control. Besides, the T/C by setting is: (endpoint: median survival time, dose: 108.0 mg/kg/injection, schedule: Q04DX003 (ip), vehicle: Klucel (hydroxypropylcellulose) (HPC)) 118 % of control; (endpoint: median survival time, dose: 128.0 mg/kg/injection, schedule: Q01DX009 (ip), vehicle: Klucel (hydroxypropylcellulose) (HPC)) 109 % of control and 123 % of control and 95 % of control.

For the compound `COC1=C(N2CC2)C(=O)C(OC)=C(N2CC2)C1=O`, the T/C was 101 % of control (endpoint: mean survival time, dose: 0.12 mg/kg/injection, schedule: Q01DX009 (ip), vehicle: saline); 95 % of control (endpoint: mean survival time, dose: 0.25 mg/kg/injection, schedule: Q01DX009 (ip), vehicle: saline); 104 % of control and 106 % of control and 98 % of control (endpoint: mean survival time, dose: 0.5 mg/kg/injection, schedule: Q01DX009 (ip), vehicle: saline); 105 % of control and 111 % of control and 121 % of control (endpoint: mean survival time, dose: 1.0 mg/kg/injection, schedule: Q01DX009 (ip), vehicle: saline); 114 % of control and 117 % of control (endpoint: mean survival time, dose: 2.0 mg/kg/injection, schedule: Q01DX009 (ip), vehicle: saline); 86 % of control (endpoint: mean survival time, dose: 4.0 mg/kg/injection, schedule: Q01DX009 (ip), vehicle: saline).

`CCCCCCCCSc1ncnc2c1ncn2CC`: the T/C was 97 % of control (endpoint: mean survival time, dose: 62.0 mg/kg/injection, schedule: Q01DX015 (ip), vehicle: carboxymethylcellulose (CMC)); 103 % of control (endpoint: mean survival time, dose: 125.0 mg/kg/injection, schedule: Q01DX015 (ip), vehicle: carboxymethylcellulose (CMC)); 116 % of control (endpoint: mean survival time, dose: 250.0 mg/kg/injection, schedule: Q01DX015 (ip), vehicle: carboxymethylcellulose (CMC)); 94 % of control (endpoint: mean survival time, dose: 500.0 mg/kg/injection, schedule: Q01DX015 (ip), vehicle: carboxymethylcellulose (CMC)).

As to `Cc1c2oc3c(C)ccc(C(=O)N[C@@H]4C(=O)N[C@H](C(C)C)C(=O)N5CCC[C@H]5C(=O)N(C)CC(=O)N(C)[C@@H](C(C)C)C(=O)O[C@H]4C)c3nc-2c(C(=O)N[C@@H]2C(=O)N[C@H](C(C)C)C(=O)N3CCC[C@H]3C(=O)N(C)CC(=O)N(C)[C@@H](C(C)C)C(=O)O[C@H]2C)c(N)c1=O` (I: [aThr][dV]P[Sar][NMeV] / II: [aThr][dV]P[Sar][NMeV]; ester I:1-I:C, II:1-II:C; linker I:N-II:N via Actinocin(9to1)), the T/C by setting is: (endpoint: mean survival time, dose: 0.11 mg/kg/injection, schedule: Q01DX001 (ip), vehicle: saline) 97 % of control; (endpoint: mean survival time, dose: 0.18 mg/kg/injection, schedule: Q01DX001 (ip), vehicle: saline) 102 % of control; (endpoint: mean survival time, dose: 0.27 mg/kg/injection, schedule: Q01DX001 (ip), vehicle: saline) 102 % of control; (endpoint: mean survival time, dose: 12.0 micrograms/kg/injection, schedule: Q01DX Z (ip), vehicle: saline) 101 % of control; (endpoint: mean survival time, dose: 25.0 micrograms/kg/injection, schedule: Q01DX Z (ip), vehicle: saline) 104 % of control; (endpoint: mean survival time, dose: 50.0 micrograms/kg/injection, schedule: Q01DX Z (ip), vehicle: saline) 102 % of control. Moreover, the T/C (endpoint: mean survival time, dose: 100.0 micrograms/kg/injection, schedule: Q01DX Z (ip), vehicle: saline) is 101 % of control.
